Data from patent publication US20250152612A1, “POLYPEPTIDE COUPLED BORON CARRYING AGENT, PREPARATION METHOD THEREFOR, AND PHARMACEUTICAL FORMULATION” (Peking University, priority 2021, published 2025).

Key:
A375 cells = conditions: 12 hours incubation; B content per 10^6 cells; FIG. 4
Protocol: (§1) 0.2 mg/g. 0.4 mg/g. 0.6 mg/g and 0.8 mg/g, added to U87MG, U251, A375, A549, HS683 and Hep cell lines cultured in 25 T petri dishes, respectively, and incubated in a thermostatic incubator for 12 hours. Subsequently, the cells and culture medium were separated, and the number of cells was determined. After digesting the cells with concentrated nitric acid, the B content in the cells was determined by ICP-AES.
(§2) Meanwhile, the BPA was formulated into aqueous solutions of 0.1 mg/g, 0.2 mg/g, 0.4 mg/g, 0.6 mg/g, and 0.8 mg/g, added into U87MG, U251, A375, A549, HS683 and Hep cell lines cultured in 25 T petri dishes, respectively, and incubated in a thermostatic incubator for 12 hours. Subsequently, the cells and culture medium were separated, and the number of cells was determined. After digesting the cells with concentrated nitric acid, the B content in the cells was determined by ICP-AES.
(§3) The […] is 249.772 nm. After determination, the B content contained in every 10^6 cells can be calculated and plotted in FIG. 4.

HS683 cells = conditions: 12 hours incubation; B content per 10^6 cells; FIG. 4
Protocol: as §1, §2, §3

## N-4-carboxyphenylboronic acid amide-arginine-lysine-lysine-lysine-arginine-arginine-glutamine-arginine-arginine-arginine [compound 2]
A375 cells
  uptake in A375 cells compared with BPA: significantly higher than BPA
HS683 cells
  uptake in cerebral glioma HS683 cells compared with BPA: significantly higher than BPA
